In patent US20230045112A1, “DISULFIRAM AND OTHER REDOX-RELATED COMPOSITIONS FOR BRAIN TUMORS” (Texas Tech University System, priority 2014, published 2023):

Tests used:
[1] = target: T1, cellular MGMT (UW228 cell-free extracts) (Homo sapiens, UniProt P16455); assay: MGMT DNA repair activity in UW228 cell-free extracts treated with DSF; type: biochemical; conditions: 25 μM DSF, 20 minutes
T1 construct: endogenous in cells; host or cells: UW228, T98G
Experimental: The DNA repair activity of MGMT was measured by the transfer of [3H]-labeled methyl groups from the O^6-position of guanine in the DNA substrate to the MGMT protein as described previously. The DNA substrate enriched in O6-methylguanine was prepared by reacting [3H]-methylnitrosourea (GE Healthcare, 60 Ci/mmol). Briefly, the cell pellets were washed with cold PBS, disrupted by sonication in the assay buffer (30 mM Tris-HCl pH 7.5, 0.5 mM DTT, 0.5 mM EDTA, 5% glycerol, and 20 μM spermidine) and centrifuged. The extracts (50-150 μg protein) were supplemented with the [3H]-DNA (10,000 cpm) and incubated at 37° C. The reactions were terminated by the addition of TCA, the DNA substrate was hydrolyzed at 80° C., and following filtration on glass fiber discs; the radioactivity present in protein precipitates was quantitated.
Cells were trypsinized, washed and MGMT activity was determined in cell extracts (top panel). The same extracts were western blotted for MGMT protein. WB, western blot. […] Cells were exposed to CuDSF and analyzed for MGMT activity and protein as above. […] To delineate the appropriate time for alkylating drug treatments following MGMT inhibition, next, the time course of MGMT depletion by these three interventions was studied.

[2] = target: T2, MGMT (Mus musculus, UniProt P26187); assay: MGMT activity in mouse brain and liver after DSF administration; type: in vivo, mice; conditions: single dose 150 mg/kg i.p., 9-12 hours
T2 construct: from tissue; host or cells: mouse brain and liver
T2 sequence (P26187 whole entry): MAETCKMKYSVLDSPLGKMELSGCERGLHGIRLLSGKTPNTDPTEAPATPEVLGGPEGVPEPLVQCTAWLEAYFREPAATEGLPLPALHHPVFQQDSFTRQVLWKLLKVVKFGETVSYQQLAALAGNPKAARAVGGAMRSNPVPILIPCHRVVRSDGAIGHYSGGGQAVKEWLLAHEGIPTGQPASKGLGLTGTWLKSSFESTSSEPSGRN
Description: Control mice received DMSO alone.
Error bars indicate SD. […] The overall findings of the present study are summarized.

[3] = target: T3, Cys145 of MGMT (Homo sapiens, UniProt P16455); assay: BG-PEG-biotin probe binding to MGMT
T3 construct: hexa-histidine; made in house; host or cells: E. coli
T3 sequence (P16455 1-207): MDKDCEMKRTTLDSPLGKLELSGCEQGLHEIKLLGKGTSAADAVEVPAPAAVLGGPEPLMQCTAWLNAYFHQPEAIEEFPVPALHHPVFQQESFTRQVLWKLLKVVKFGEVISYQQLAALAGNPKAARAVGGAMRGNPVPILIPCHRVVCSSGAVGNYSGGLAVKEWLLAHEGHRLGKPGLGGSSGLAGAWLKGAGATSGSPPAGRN

[4] = target: T4, MGMT (Homo sapiens, UniProt P16455); assay: MGMT activity and protein in MGMT-proficient human cancer cell lines (HT29, T47D, HCT116); type: cell-based; set-up: endogenous in cells; host or cells: HT29, T47D, HCT116
T4 sequence (P16455 1-207): T3 sequence (P16455 1-207)

repair activity in the extracts curtailed [1]: 75%
decrease of MGMT repair activity in brain [2]: 40%
BG-PEG-biotin labeling of MGMT in cell extracts after drug ([3]; UW228 cell extracts, 20 minutes): eliminated the western blot signal
degradation of MGMT ([4]; 200 μM, 12 hours): about 70%
inhibition at 400 µM ([4]; HT29 and HCT116 cells, 400 μM, 20 hour): 95%
Structure (SMILES): CCN(CC)C(=S)SSC(=S)N(CC)CC [DSF, 1,1′,1″,1′″-[disulfanediylbis(carbonothioylnitrilo)]tetraethane]
binding of BG-PEG-biotin probe to purified rMGMT after drug ([3]; 50 μM DSF, 20 minutes at 37° C., wild type rMGMT): significant reduction in binding of the probe
